Experiments:
MDR1 and BCRP = test: In vitro human transporter efflux (MDCK-MDR1-BCRP); assay type: in vitro ADME; conditions: human, pH 7.4, Papp(B to A)/Papp(A to B), 1 or 0.1 μM, 90-min incubation
Protocol: In Vitro Human Transporter Efflux
(§5) MDCKII cells expressing MDR1 and BCRP were seeded onto polyethylene membranes in 96-well Transwell insert systems at a density to form a confluent cell monolayer. […] The final percent volume of the organic solvent was less than 1%. Permeation of the test compounds from A to B direction and from B to A direction was determined over a 90-min incubation at 37° C. and 5% CO2 with a relative humidity of 95%. At the end of the incubation, samples from the apical and basolateral side were taken and then precipitated with cold acetonitrile containing internal standard. After centrifugation at 4000 rpm, the supernatant was diluted with 0.1% formic acid aqueous solution and quantified by LC-MS/MS. The integrity of the cell monolayers was confirmed by using the marker Lucifer yellow.
(§6) (1) The efflux ratio was calculated using the following equation Efflux ratio=Papp(B to A)/Papp(A to B)
(§7) (2) where dCr/dt is the cumulative concentration of the compound in the receiver chamber as a function of time (in μM/s); Vr is the solution volume in the receiver chamber (0.1 ml on the apical side and 0.3 ml on the basolateral side); A is the surface area for the transport, that is, 0.11 cm2 for the area of the monolayer; and CO is the initial concentration in the donor chamber (in μM).

PARP6 = target: T1, PARP6 (Homo sapiens, UniProt Q2NL67); test: PARP fluorescence anisotropy binding assay, PARP6; conditions: recombinant full length GST tagged PARP6
T1 construct: Recombinant full length GST tagged PARP6 protein; GST
Protocol: (§1) PARP Fluorescence Anisotropy Binding Assays
(§2) Recombinant full length GST tagged PARP6 protein was diluted to 160 nM with 50 mM Tris pH 8, 0.001% Triton X100, 10 mM MgCl2, 150 mM NaCl and incubated for four hours with an equivalent volume of 6 nM fluorescent probe diluted with 50 mM Tris pH 8, 0.001% Triton X100, 10 mM MgCl2, 150 mM NaCl. The final DMSO concentration of the probe was kept below 1% (v/v).
Fluorescence anisotropy of the probe when bound to the proteins was measured using a BMG Pherastar FSX© in the presence of test compounds or solvent control and the effect on anisotropy determined. % inhibition values for different test compound concentrations were calculated and fitted to a four parameter logistic plot in order to determine the IC50 value. Where necessary, the compound Ki can be determined from the IC50 value using a Munson Rodbard equation defined in Anal Biochem. 1980 Sep. 1; 107(1):220-39 and is based on the known KD of the probe binding to the relevant PARP protein

BRCA2 (−/−) DLD1 cells = test: PARP proliferation assay (7 day compound dosing), BRCA2 (−/−) DLD1; assay type: cell-based; conditions: BRCA2 −/− DLD-1 cells, 7 day dosing; read-out: BRCA2 −/− DLD-1 prolif. 7 d IC50
Protocol: (§3) PARP Proliferation Assay (7 Day Compound Dosing)
(§4) DLD1 and BRCA2 (−/−) DLD1 cells were harvested to a density of 5000 cells/ml and 2.5E4 cells/ml respectively in complete media, 40 μL/well seeded into 384-well plates (Greiner, Kremsmunster, Austria; 781090) using a Multidrop Combi then incubated at 37° C., 5% CO2 overnight. Next day (Day 1) using a Multidrop Combi add sytoxgreen (5 ul, 2 uM) and saponin (10 ul, 0.25% stock) to a day 0 plate, seal the plate using a black adhesive lid and incubate for >3 h at rt. Cells were imaged using Cell Insight (Thermo Fisher) fitted with a 4× objective. Test compounds are added using an Echo 555 and placed in incubator maintained at 37° C., 5% CO2 and incubated for 7 days. On Day 8 add sytox green (5 ul, 2 uM) and then saponin (10 ul, 0.25% stock) to plates, seal the plate using a black adhesive lid and incubate for >3 h at rt. Read all cells on the Cell Insight with 4× Objective. The rate of proliferation is determined in Genedata by assessing the total cell number output from the Cell Insight for Day 0 and Day 8 plates.

PARP5a = PARP5a (Homo sapiens, UniProt O95271); test: PARP fluorescence anisotropy binding assay, PARP5a binding domain; conditions: recombinant PARP5a binding domain
From the text: as §1

PARP1 = target: T2, PARP1 (Homo sapiens, UniProt P09874); test: PARP fluorescence anisotropy binding assay, PARP1; conditions: recombinant full length 6HIS tagged PARP1
T2 construct: Recombinant full length 6HIS tagged PARP1 protein; 6HIS
Protocol: Recombinant full length 6HIS tagged PARP1 protein was diluted to 6 nM with 50 mM Tris pH 8, 0.001% Triton X100, 10 mM MgCl2, 150 mM NaCl and incubated for four hours with an equivalent volume of 2 nM fluorescent probe diluted with 50 mM Tris pH 8, 0.001% Triton X100, 10 mM MgCl2, 150 mM NaCl. The final DMSO concentration of the probe was kept below 1% (v/v).

PARP3 = target: T3, PARP3 (Homo sapiens, UniProt Q9Y6F1); test: PARP fluorescence anisotropy binding assay, PARP3; conditions: recombinant full length PARP3
T3 construct: Recombinant full length PARP3 protein
T3 sequence (Q9Y6F1 1-533): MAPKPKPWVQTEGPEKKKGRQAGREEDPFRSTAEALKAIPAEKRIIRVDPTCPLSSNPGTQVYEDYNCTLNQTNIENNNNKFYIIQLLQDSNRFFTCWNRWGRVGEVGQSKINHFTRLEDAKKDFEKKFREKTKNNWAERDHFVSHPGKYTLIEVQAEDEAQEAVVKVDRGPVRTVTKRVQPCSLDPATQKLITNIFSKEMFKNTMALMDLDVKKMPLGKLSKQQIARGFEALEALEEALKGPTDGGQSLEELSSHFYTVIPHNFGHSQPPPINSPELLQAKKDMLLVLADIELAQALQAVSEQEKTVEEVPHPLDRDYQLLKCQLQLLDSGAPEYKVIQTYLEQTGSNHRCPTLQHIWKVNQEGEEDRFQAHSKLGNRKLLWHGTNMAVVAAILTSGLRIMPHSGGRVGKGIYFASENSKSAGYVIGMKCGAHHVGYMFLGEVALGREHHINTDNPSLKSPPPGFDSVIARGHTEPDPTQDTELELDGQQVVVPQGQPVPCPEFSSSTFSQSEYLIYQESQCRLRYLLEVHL
From the text: as §1

hERG = hERG (Homo sapiens, UniProt Q12809); test: hERG inhibition
From the text: It is well known that blockade of the cardiac ion channel coded by human ether-n-gogo-related gene (hERG) is a risk factor in drug discovery and development. Blockage of hERG can cause safety problems such as cardiac arrhythmia. Advantageously, the compounds of Formula I have low hERG activity.

[1] = system: MDCKII cells expressing MDR1 and BCRP; test: In vitro human transporter efflux (MDCK-MDR1-BCRP); assay type: in vitro ADME; conditions: Papp(B to A)/Papp(A to B), 1 or 0.1 μM, 90-min incubation
Protocol: In Vitro Human Transporter Efflux
as §5, §6, §7

PARP2 = target: T4, PARP2 (Homo sapiens, UniProt Q9UGN5); test: PARP fluorescence anisotropy binding assay, PARP2; conditions: recombinant full length PARP2
T4 construct: Recombinant full length PARP2 protein
Protocol: as §1
as §2, with “PARP2” for “GST tagged PARP6”, “6” for “160”, “2” for “6”
Fluorescence anisotropy of the probe when bound to the proteins was measured using a BMG Pherastar FSX© in the presence of test compounds or solvent control and the effect on anisotropy determined. % inhibition values for different test compound concentrations were calculated and fitted to a four parameter logistic plot in order to determine the IC50 value.

DLD1 cells = test: PARP proliferation assay (7 day compound dosing), WT DLD1; assay type: cell-based; conditions: Homo sapiens, 168 h; WT DLD-1 cells, 7 day dosing; read-out: WT DLD-1 prolif. 7 d IC50
Protocol: as §3, §4

Chain of hERG (Q12809 whole entry): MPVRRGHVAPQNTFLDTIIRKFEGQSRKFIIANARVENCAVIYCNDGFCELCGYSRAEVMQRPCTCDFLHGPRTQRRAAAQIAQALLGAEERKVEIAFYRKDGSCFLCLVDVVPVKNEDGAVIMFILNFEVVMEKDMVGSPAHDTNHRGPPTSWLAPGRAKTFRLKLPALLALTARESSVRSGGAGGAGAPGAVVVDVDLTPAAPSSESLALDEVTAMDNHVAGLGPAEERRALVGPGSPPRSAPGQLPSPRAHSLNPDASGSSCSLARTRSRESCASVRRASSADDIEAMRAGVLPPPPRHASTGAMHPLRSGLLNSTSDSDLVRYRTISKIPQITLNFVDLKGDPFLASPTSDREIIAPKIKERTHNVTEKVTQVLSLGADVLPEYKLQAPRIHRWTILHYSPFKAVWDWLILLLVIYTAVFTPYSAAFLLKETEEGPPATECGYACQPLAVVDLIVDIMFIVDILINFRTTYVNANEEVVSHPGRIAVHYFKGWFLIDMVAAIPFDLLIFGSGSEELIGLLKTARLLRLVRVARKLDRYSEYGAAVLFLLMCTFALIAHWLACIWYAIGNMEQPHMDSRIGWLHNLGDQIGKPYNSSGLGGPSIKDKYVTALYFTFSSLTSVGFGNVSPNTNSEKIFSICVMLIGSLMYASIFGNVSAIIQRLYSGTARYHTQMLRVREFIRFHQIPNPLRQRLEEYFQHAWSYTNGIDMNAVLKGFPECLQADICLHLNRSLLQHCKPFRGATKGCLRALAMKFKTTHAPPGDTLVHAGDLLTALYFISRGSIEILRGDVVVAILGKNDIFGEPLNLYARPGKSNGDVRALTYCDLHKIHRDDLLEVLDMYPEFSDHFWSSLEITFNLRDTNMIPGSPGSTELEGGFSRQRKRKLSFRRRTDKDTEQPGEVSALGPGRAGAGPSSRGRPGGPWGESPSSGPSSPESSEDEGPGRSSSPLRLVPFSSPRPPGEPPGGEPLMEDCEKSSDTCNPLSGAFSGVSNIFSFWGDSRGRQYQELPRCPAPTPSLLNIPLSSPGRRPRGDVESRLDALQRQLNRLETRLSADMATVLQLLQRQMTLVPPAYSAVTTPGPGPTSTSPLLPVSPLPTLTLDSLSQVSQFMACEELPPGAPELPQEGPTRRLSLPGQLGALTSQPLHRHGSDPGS
T1 sequence (Q2NL67 whole entry): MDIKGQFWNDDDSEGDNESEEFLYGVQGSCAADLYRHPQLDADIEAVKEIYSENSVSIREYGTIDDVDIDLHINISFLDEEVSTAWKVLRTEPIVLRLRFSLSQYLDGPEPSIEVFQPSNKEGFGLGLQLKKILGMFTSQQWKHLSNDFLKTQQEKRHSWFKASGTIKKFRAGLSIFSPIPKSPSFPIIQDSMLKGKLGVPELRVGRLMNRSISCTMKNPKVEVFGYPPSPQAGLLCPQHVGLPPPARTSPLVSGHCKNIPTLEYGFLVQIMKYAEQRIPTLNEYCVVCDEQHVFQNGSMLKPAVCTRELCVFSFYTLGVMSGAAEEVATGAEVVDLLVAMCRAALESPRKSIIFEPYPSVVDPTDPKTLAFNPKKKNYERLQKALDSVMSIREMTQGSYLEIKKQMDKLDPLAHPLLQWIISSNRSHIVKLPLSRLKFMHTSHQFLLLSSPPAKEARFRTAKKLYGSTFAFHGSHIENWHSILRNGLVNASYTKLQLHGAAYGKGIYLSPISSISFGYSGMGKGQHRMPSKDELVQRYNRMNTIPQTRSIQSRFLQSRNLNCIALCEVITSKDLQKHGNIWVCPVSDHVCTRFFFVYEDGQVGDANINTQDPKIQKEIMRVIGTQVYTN
T2 sequence (P09874 whole entry): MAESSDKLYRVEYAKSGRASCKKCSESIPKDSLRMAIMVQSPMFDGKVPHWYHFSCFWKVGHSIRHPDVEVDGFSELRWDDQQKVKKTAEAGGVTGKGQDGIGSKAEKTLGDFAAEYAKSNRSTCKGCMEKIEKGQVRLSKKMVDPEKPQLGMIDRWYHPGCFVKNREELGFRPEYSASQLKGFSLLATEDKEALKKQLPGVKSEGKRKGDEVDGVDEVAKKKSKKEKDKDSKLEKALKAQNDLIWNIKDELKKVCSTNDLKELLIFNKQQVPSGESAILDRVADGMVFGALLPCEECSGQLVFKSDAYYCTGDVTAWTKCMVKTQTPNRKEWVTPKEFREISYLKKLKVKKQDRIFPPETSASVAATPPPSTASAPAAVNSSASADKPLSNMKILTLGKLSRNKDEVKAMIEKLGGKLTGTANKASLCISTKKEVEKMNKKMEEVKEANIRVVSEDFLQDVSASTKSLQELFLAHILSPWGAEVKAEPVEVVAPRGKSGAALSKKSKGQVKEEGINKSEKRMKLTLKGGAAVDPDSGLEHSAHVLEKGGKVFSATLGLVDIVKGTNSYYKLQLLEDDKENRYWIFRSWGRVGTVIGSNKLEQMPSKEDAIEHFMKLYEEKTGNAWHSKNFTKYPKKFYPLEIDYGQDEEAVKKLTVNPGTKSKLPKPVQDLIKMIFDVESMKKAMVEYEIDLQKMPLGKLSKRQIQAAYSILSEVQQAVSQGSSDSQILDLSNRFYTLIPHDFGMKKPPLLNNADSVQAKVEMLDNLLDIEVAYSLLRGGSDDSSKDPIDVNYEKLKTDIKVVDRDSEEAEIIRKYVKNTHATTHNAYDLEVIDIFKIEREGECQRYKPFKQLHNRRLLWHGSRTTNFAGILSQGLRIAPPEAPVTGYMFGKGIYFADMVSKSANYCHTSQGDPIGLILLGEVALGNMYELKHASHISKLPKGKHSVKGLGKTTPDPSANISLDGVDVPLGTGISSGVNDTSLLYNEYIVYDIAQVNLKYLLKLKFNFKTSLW
Chain of PARP5a (O95271 1112-1317): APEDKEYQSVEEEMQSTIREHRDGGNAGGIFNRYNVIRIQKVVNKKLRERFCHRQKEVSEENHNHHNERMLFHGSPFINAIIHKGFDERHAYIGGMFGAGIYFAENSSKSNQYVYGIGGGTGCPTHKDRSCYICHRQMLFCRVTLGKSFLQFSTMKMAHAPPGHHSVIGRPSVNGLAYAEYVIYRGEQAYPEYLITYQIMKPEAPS
T4 sequence (Q9UGN5 whole entry): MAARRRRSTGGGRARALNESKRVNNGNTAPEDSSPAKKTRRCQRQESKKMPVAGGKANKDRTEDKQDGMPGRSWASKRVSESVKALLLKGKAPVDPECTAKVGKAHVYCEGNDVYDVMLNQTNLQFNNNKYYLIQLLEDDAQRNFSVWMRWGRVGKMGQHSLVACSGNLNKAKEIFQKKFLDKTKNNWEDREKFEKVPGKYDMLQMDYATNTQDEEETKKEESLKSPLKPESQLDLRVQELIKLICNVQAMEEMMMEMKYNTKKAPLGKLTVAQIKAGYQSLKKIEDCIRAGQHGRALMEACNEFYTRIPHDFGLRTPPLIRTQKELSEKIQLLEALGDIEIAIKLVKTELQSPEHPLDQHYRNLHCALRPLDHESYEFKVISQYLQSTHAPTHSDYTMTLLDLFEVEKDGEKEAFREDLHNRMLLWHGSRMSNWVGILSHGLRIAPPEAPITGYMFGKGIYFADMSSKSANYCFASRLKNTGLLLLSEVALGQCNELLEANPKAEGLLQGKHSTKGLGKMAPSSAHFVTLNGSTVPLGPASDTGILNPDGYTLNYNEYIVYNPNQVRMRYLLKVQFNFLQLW

Row | efflux ratio at 90 min (MDR1 and BCRP) | IC50 (PARP6) | IC50 (BRCA2 (−/−) DLD1 cells) | IC50 (PARP5a) | IC50 (PARP1) | IC50 (PARP3) | MDCK-MDR1-BCRP Efflux Ratio [1] | IC50 (PARP2) | IC50 (DLD1 cells) | SMILES | IC50 (hERG)
1 | 4.2 | > 100 µM | 0.008 µM | > 100 µM | 0.015 µM | 85 µM |  |  |  | CNC(=O)c1ccc(N2CCN(Cc3ccc4nc(C(C)F)c(=O)[nH]c4c3F)CC2)c(F)n1 (single isomer, unassigned) [Example 12, 6-fluoro-5-[4-[[5-fluoro-2-[(1S OR 1R)-1-fluoroethyl]-3-oxo-4H-quinoxalin-6-yl]methyl]piperazin-1-yl]-N-methyl-pyridine-2-carboxamide] | > 40 µM
2 |  | > 100 µM | 0.019 µM | > 100 µM | 0.009 µM | 62 µM | 3.0 | > 100 µM | 22 µM | CNC(=O)c1ccc(N2CCN(Cc3ccc4nc(C(C)F)c(=O)[nH]c4c3F)CC2)c(F)n1 (single isomer, unassigned) [Example 13, 6-fluoro-5-[4-[[5-fluoro-2-[(1S OR 1R)-1-fluoroethyl]-3-oxo-4H-quinoxalin-6-yl]methyl]piperazin-1-yl]-N-methyl-pyridine-2-carboxamide] | > 40 µM

From patent US12421208B2, “Chemical compounds” (ASTRAZENECA AB, priority 2020, dated 2025)
